We go through 1 compound from patent US10060933B2, “Methods for diagnosis and treatment of amyotrophic lateral sclerosis based on an increased level of interaction between TDP-43 polypeptide and NF-KB P65 polypeptide” (UNIVERSITE LAVAL, priority 2011, dated 2018).

“Also recorded” adds a separate entry of the source.

The subject of one test is GFAP. In words: GFAP immunofluorescence of spinal cord sections. The test is classed as in vivo, mouse. The conditions noted are these: GFAP-luc/TDP-43^Wt mice, treated vs untreated. Here is the method: (§1) To study the in vivo effect of NF-κB inhibition on disease progression, we injected TDP-43^wt; GFAP-luc double transgenic mice with 3 mg/kg body weight of WA twice a week for 10-weeks starting at 30-weeks. […] We used TDP-43^wt; GFAP-luc double transgenic mice because the reporter luciferase (luc) allowed the longitudinal and non-invasive biophotonic imaging with CCD camera of the GFAP promoter activity which is a target of activated NF-κB. To analyse the spatial and temporal dynamics of astrocytes activation/GFAP induction in TDP-43 mouse model, we performed series of live imaging experiments. […] The downregulation of GFAP promoter activity was further confirmed in these mice using GFAP immunofluorescence of spinal cord sections of TDP-43^Wt mice (both drug-treated and untreated) (FIG. 8F). […] Down-regulation of GFAP along with reduction in active p65 levels in withaferin treated mice prompted us to analyse behavioural changes in these mice. […] The withaferin treated mice also had 40% reduction in the number of partially denervated neuromuscular junction (NMJ) (FIGS. 8E&G).
4% Paraformaldehyde (PFA) fixed spinal cord and brain sections of mice were sectioned and fixed on slides. For immunohistochemistry, tissues were treated with hydrogen-peroxide solution before permeabilisation. […]

The next test has as its system neuromuscular junctions. Put plainly: Neuromuscular junction staining and count. The test is classed as in vivo, mouse.
The next test has as its system TDP-43^G348C mice. In words: Accelerating rotarod in TDP-43^G348C mice. The conditions noted are these: WA-treated vs untreated TDP-43^G348C mice. The test is classed as in vivo, mouse. On the procedure: Accelerating rotarod analysis was performed in TDP-43^G348C mice at various ages from 8 wk to 52 wk, and time taken by the mice to fall from the rotarod is used as rotarod performance. WA treatment period is marked as drug treatment period. Error bars represent mean±SEM (n=10 each group) (FIG. 25).
(§2) Accelerating rotarod was performed on mice at 4 rpm speed with 0.25 rpm/sec acceleration as described elsewhere^30. Mice were subjected to three trials per session and every two weeks.

For a further test, the target named is T1, p65 (Mus musculus, UniProt Q04207).
T1 construct: from tissue; host or cells: spinal cord of GFAP-luc/TDP-43^Wt transgenic mice (nuclear lysates)
Put plainly: p65 EMSA on spinal cord tissue nuclear lysates. Particulars: treated vs untreated GFAP-luc/TDP-43^Wt mice. In kind it is in vivo. Here is the method: as §1
48 hrs after transfection of CMV-p65 with pCMV-TDP43^WT or pCMV-TDP43^G348C and treatment with LPS, BV-2 cells were harvested and nuclear extracts prepared. […] Concentrations of nuclear proteins were determined on diluted samples using a Bradford assay (Biorad). […]
On the technique in general: A gel shift assay detects complexes by their altered migration in electrophoresis.

Another test concerns GFAP promoter activity. Put plainly: In vivo bioluminescence imaging of GFAP-luc in spinal cord. Further details: species or system mouse. The conditions noted are these: for GFAP promoter activity / GFAP-luc expression (bioluminescence) in spinal cord: GFAP-luc/TDP-43^Wt mice, 3 mg/kg i.p. twice a week for 10 weeks from 30 weeks, 36 and 40 weeks, vs untreated, 3 mg/kg. Here is the method: as §1
(§3) Age matched control non-transgenic animals (n=10) and in TDP-43^Wt (n=10) littermates were injected twice a week with 0.9% saline intra-peritoneally. All the behavioral and imaging experiments were conducted in a double blind manner as such the experimenter had no knowledge of the drug treatment or the genotype of animals.
As previously described^31, 32, the images were gathered using IVIS® 200 Imaging System (CaliperLSXenogen, Alameda, Calif., USA). Twenty-five minutes prior to imaging session, the mice received intraperitoneal (i.p.) injection of the luciferase substrate D-luciferine (150 mg/kg—for mice between 20 and 25 g, […] of a solution of 20 mg/ml of D-luciferine dissolved in 0.9% saline was injected) (CaliperLS-Xenogen).

The next test has as its system GFAP-luc/TDP-43^Wt mice. Put plainly: Accelerating rotarod in TDP-43^Wt transgenic mice. In kind it is in vivo, mouse. On the procedure: as §1, §3, §2
A general note: Falling from the rotarod earlier than controls is read as motor impairment.

[1] abbreviates: withaferin treated TDP-43 transgenic mice after cessation of treatment.

T1 sequence (Q04207 whole entry): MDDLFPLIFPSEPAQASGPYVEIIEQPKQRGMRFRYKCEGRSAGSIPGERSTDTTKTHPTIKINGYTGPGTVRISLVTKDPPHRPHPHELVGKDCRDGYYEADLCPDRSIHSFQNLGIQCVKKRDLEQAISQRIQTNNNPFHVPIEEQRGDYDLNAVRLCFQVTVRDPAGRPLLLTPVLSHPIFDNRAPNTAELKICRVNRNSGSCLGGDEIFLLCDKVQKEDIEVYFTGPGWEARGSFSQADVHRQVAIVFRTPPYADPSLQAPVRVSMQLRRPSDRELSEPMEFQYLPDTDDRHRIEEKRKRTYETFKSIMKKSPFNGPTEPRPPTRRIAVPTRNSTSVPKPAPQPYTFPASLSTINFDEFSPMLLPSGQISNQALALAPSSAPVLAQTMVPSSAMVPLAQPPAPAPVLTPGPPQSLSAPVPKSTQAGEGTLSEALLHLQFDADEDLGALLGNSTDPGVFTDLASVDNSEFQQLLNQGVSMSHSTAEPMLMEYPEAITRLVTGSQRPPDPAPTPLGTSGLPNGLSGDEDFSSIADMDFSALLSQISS
Experimental for neuromuscular junctions: For monitoring the neuromuscular junctions, 25 mm thick muscle sections were incubated for 1 h in 0.1 M glycine in PBS for 2 h at RT and then stained with Alexa Fluor 594-conjugated α-bungarotoxin (1:2000, Molecular Probes/Invitrogen detection technologies, Carlsbad, Calif., USA) diluted in 3% BSA in PBS for 3 h at RT. After washing in PBS, the muscle sections were blocked in 3% BSA, 10% goat serum and 0.5% Triton X-100 in PBS overnight at 48° C. The next day, the sections were incubated with mouse antineurofilament antibody 160 K (1:2000, Temecula, Calif., USA) and mouse anti-synaptophysin (Dako, Mississauga, ON, Canada) in the same blocking solution overnight at 48° C. After washing for 5 h, muscle sections were incubated with goat anti-mouse Alexa Fluor 488-conjugated secondary antibody (Probes/Invitrogen detection technologies, Carlsbad, Calif., USA) diluted 1:500 in blocking buffer for 3 h at RT. Three hundred neuromuscular junctions were counted per animal sample, discriminating both innervated and denervated junctions as described above. […]

`CC1=C(CO)C(=O)O[C@@H]([C@@H](C)[C@H]2CC[C@H]3[C@@H]4C[C@H]5O[C@]56[C@@H](O)C=CC(=O)[C@]6(C)[C@H]4CC[C@]23C)C1` [Withaferin A]: in the test with GFAP, the “GFAP activation (GFAP immunofluorescence of spinal cord sections)” value is “downregulation; also recorded: significantly low GFAP activation”. In the test on neuromuscular junctions (withaferin treated TDP-43^Wt mice vs untreated), the “reduction in the number of partially denervated neuromuscular junction (NMJ)” value is listed as 40%. Further, the “number of partially denervated muscle (NMJ frequency)” value in the test with neuromuscular junctions (withaferin treated TDP-43^Wt mice, age-matched untreated 15±5%) was 9±4%. In addition, the “motor performance (accelerating rotarod, time to fall)” value in the test on TDP-43^G348C mice was “significantly better motor performance”. Moreover, the “nuclear active p65 (EMSA)” value at p65 is reported as “reduced amount of active p65; also recorded: much reduced nuclear active p65”. Moreover, the “GFAP promoter activity / GFAP-luc expression (bioluminescence) in spinal cord” value was “Significant reduction” in the test on GFAP promoter activity and “progressive reduction in GFAP-luc expression” with GFAP promoter activity (listed as WA). Further, the “GFAP luciferase activity after cessation of the drug treatment” value in the test on GFAP promoter activity (setting [1]) was “increase in GFAP luciferase activity”. Moreover, the rotarod performance result in the test with GFAP-luc/TDP-43^Wt mice (GFAP-luc/TDP-43^Wt mice, 3 mg/kg i.p. twice a week for 10 weeks, vs untreated, 3 mg/kg) is on record as “significantly better motor performance; also recorded: much better rotarod performance”. Also, the “ameliorated motor impairment compared to untreated mice” value with GFAP-luc/TDP-43^Wt mice (TDP-43^WT or TDP-43^G348C transgenic mice) was “at least 4%”. In the test with GFAP-luc/TDP-43^Wt mice (setting [1]), the “rotarod performance after cessation of the drug treatment” value is recorded as “decrease in rotarod performance”.
